From patent US20210405025A1, “IDENTIFYING COMPOUNDS FOR TREATING CANCER AND USE THEREOF” (THE UAB RESEARCH FOUNDATION, priority 2018, published 2021)
Structures can show the parent of a compound that is named as a salt.

Test system: relapsed AML cells
Experiment: Drug sensitivity assay, 1,536-well, 3-day culture with individual approved drugs at 10 μM, viability by alamarBlue
Format: cell-based, human
Conditions: not given
How it was run: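 Three-day exposure of primary AML cells to individual drugs in 1,536-well format, viability read as percent live cells. Cells were thawed, cultured overnight, sorted by FACS for viable blasts and plated at 4,000-4,500 cells/5 μL in cytokine-supplemented IMDM/BIT medium.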

In the case of `[O-][n+]1ccccc1[S-].[O-][n+]1ccccc1[S-].[Zn+2]` [PYRITHIONE ZINC], the “#Cases >70% cell death” value is reported as 7.

Same assay, conditions: number of relapsed AML cases out of 18 tested with >70% cell death; 10 μM, 3-day culture

Going from `Clc1ccc(CCC(Cn2ccnc2)Sc2c(Cl)cccc2Cl)cc1` (stereo not drawn) [BUTOCONAZOLE] to `Clc1ccc(C(Cn2ccnc2)OCc2csc3c(Cl)cccc23)c(Cl)c1` (stereo not drawn) [SERTACONAZOLE], the “#Cases >70% cell death” value rises from 1 to 2.

Compared with `C/C=C(\C)C(=O)N[C@@H](c1ccccc1)[C@@H](O)C(=O)O[C@H]1C[C@@]2(O)[C@@H](OC(=O)c3ccccc3)[C@@H]3[C@]4(OC(C)=O)CO[C@@H]4C[C@H](O)[C@@]3(C)C(=O)[C@H](OC(C)=O)C(=C1C)C2(C)C` [CEPHALOMANNINE], `CC[C@]1(O)C[C@H]2CN(CCc3c([nH]c4ccccc34)[C@@](C(=O)OC)(c3cc4c(cc3OC)N(C=O)[C@H]3[C@@](O)(C(=O)OC)[C@H](OC(C)=O)[C@]5(CC)C=CCN6CC[C@]43[C@@H]65)C2)C1` [VINCRISTINE] is higher in “#Cases >70% cell death” value: 7 for the first, 14 for the second.

Compared with `CCN(CC)CCNC(=O)c1c(C)[nH]c(/C=C2\C(=O)Nc3ccc(F)cc32)c1C` [SUNITINIB MALATE], `Cc1cc(C(=O)NOCCO)c(Nc2ccc(I)cc2F)n(C)c1=O` [AZD8330] is lower in “#Cases >70% cell death” value: 15 for the first, 2 for the second.

Going from `Clc1ccc(Cn2c(CN3CCCC3)nc3ccccc32)cc1` [CLEMIZOLE HYDROCHLORIDE] to `COc1ccc(CCN2CCC(Nc3nc4ccccc4n3Cc3ccc(F)cc3)CC2)cc1` [ASTEMIZOLE], the “#Cases >70% cell death” value rises from 1 to 7.

`CNC(=O)c1ccccc1Sc1ccc2c(/C=C/c3ccccn3)n[nH]c2c1` [AXITINIB] and `CNC(=O)c1cc(Oc2ccc(NC(=O)Nc3ccc(Cl)c(C(F)(F)F)c3)c(F)c2)ccn1` [REGORAFENIB] are the same in “#Cases >70% cell death” value: 9 for the first, 9 for the second.

Compared with `CN(C)C(=O)n1cc(C(=O)c2ccn3c2CS[C@@H]3c2cccnc2)c2ccc(-c3ccc(F)cc3)cc21` [A-85783], `CC(C)Oc1ccc(C(=O)N[C@H](CNC(=O)CN(C)C)Cc2ccc(-c3cn4cccc([C@H](C)O)c4n3)cc2)cc1Cl` [GSK923295] is lower in “#Cases >70% cell death” value: 9 for the first, 8 for the second.

First: CC(C)(C)[C@]1(O)CCN2C[C@H]3c4ccccc4CCc4cccc(c43)[C@@H]2C1.Cl [(−)-BUTACLAMOL HCL]
Second: CN1CCc2cccc3c2[C@H]1Cc1ccc(O)c(O)c1-3 [APOMORPHINE]
The “#Cases >70% cell death” value of the first is lower: 3 for the first, 5 for the second.

Going from `Cc1c(-c2ccc(O)cc2)n(Cc2ccc(OCCN3CCCCCC3)cc2)c2ccc(O)cc12` [BAZEDOXIFENE HCL] to `CC[C@@H]([C@H](C)O)n1ncn(-c2ccc(N3CCN(c4ccc(OC[C@@H]5CO[C@@](Cn6cncn6)(c6ccc(F)cc6F)C5)cc4)CC3)cc2)c1=O` [POSACONAZOLE], the “#Cases >70% cell death” value falls from 8 to 6.

Going from `O=C(O)CCCCN(CCc1ccccc1OCc1ccc(CCc2ccccc2)cc1)Cc1ccc(C(=O)O)cc1` to `O=C(CCCN1CC=C(n2c(=O)[nH]c3ccccc32)CC1)c1ccc(F)cc1` [DROPERIDOL], the “#Cases >70% cell death” value rises from 1 to 2.

First: C1CCC(C(CC2CCCCN2)C2CCCCC2)CC1 (stereo not drawn) [PERHEXILINE MALEATE]
Second: O=C(NCC1CCCCN1)c1cc(OCC(F)(F)F)ccc1OCC(F)(F)F (stereo not drawn)
The “#Cases >70% cell death” value of the first is higher: 13 for the first, 1 for the second.

First: NNC(=O)c1ccncc1 [ISONIAZID]
Second: O=C(CCCCCCC(=O)Nc1cccnc1)NO [PYROXAMIDE]
The “#Cases >70% cell death” value of the first is lower: 1 for the first, 15 for the second.

Going from `Cc1cc(CC(C)CC(C)(C)C)n(O)c(=O)c1.NCCO` (stereo not drawn) [PIROCTONE OLAMINE] to `CC(C)(C)NCC(O)c1ccc(O)c(CO)c1` (stereo not drawn) [ALBUTEROL], the “#Cases >70% cell death” value falls from 13 to 1.

Going from `Cc1cc([C@@H](C)Nc2ccccc2C(=O)O)c2nc(N3CCOCC3)cc(=O)n2c1` [AZD-6482] to `Cc1nc(Nc2ncc(C(=O)Nc3c(C)cccc3Cl)s2)cc(N2CCN(CCO)CC2)n1` [DASATINIB], the “#Cases >70% cell death” value rises from 1 to 6.

Compared with `C=CCNC1=C2C[C@@H](C)C[C@H](OC)[C@H](O)[C@@H](C)/C=C(\C)[C@H](OC(N)=O)[C@@H](OC)/C=C\C=C(/C)C(=O)NC(=CC1=O)C2=O` [TANESPIMYCIN (17-AAG), TANESPIMYCIN], `CC[C@H]1OC(=O)C[C@@H](O)[C@H](C)[C@@H](O[C@@H]2O[C@H](C)[C@@H](O)[C@H](N(C)C)[C@H]2O)[C@@H](CCN2C[C@H](C)C[C@H](C)C2)C[C@@H](C)C(=O)/C=C/C(C)=C/[C@@H]1CO[C@@H]1O[C@H](C)[C@@H](O)[C@@H](OC)[C@H]1OC` [TILMICOSIN] is lower in “#Cases >70% cell death” value: 18 for the first, 1 for the second.

`O=C(NC1CCNCC1)c1[nH]ncc1NC(=O)c1c(Cl)cccc1Cl` [AT-7519] and `CC(C)(C)c1cnc(CSc2cnc(NC(=O)C3CCNCC3)s2)o1` [BMS-387032] are the same in “#Cases >70% cell death” value: 18 for the first, 18 for the second.

`Cc1ccc(S(=O)(=O)NC(=O)NN2CC3CCCC3C2)cc1` (stereo not drawn) [GLICLAZIDE] and `O=C(Nc1ccccc1Br)N[C@@H]1CCN(c2ccc(C(F)(F)F)cn2)C1` [SB-705498] are the same in “#Cases >70% cell death” value: 1 for the first, 1 for the second.

First: O=c1[nH]cc(F)c(=O)[nH]1 [FLUOROURACIL]
Second: O=c1[nH]c(=O)n([C@H]2C[C@H](O)[C@@H](CO)O2)cc1F [FLOXURIDINE]
The “#Cases >70% cell death” value of the first is lower: 4 for the first, 8 for the second.

Going from `Nc1c2ccccc2nc2ccccc12` [AMINACRINE] to `OCCOCCN1CCN(C2=Nc3ccccc3Sc3ccccc32)CC1` [QUETIAPINE], the “#Cases >70% cell death” value falls from 18 to 1.

Going from `COc1cc2c(c(OC)c1OC)-c1ccc(OC)c(=O)cc1[C@@H](NC(C)=O)CC2` [COLCHICINE] to `CC[C@H]1CN2CCc3cc(OC)c(OC)cc3[C@@H]2C[C@@H]1C[C@H]1NCCc2cc(OC)c(OC)cc21` [EMETINE], the “#Cases >70% cell death” value rises from 13 to 18.

Compared with `CC[C@H](C)C(=O)O[C@H]1CCC=C2C=C[C@H](C)[C@H](CC[C@@H]3C[C@@H](O)CC(=O)O3)[C@H]21` [MEVASTATIN], `C[C@H]1[C@H](OC(=O)CCC(=O)O)O[C@@H]2O[C@@]3(C)CC[C@H]4[C@H](C)CC[C@@H]1[C@@]24OO3` [ARTESUNATE] is lower in “#Cases >70% cell death” value: 7 for the first, 5 for the second.

First: CC[C@H]1OC(=O)[C@H](C)[C@@H](O[C@H]2C[C@@](C)(OC)[C@@H](O)[C@H](C)O2)[C@H](C)[C@@H](O[C@@H]2O[C@H](C)C[C@H](N(C)C)[C@H]2O)[C@](C)(O)C[C@@H](C)CN(C)[C@H](C)[C@@H](O)[C@]1(C)O [AZITHROMYCIN]
Second: COc1cccc2c1C(=O)c1c(O)c3c(c(O)c1C2=O)C[C@@](O)(C(C)=O)C[C@@H]3O[C@H]1C[C@H](N)[C@H](O)[C@H](C)O1 [DAUNORUBICIN]
The “#Cases >70% cell death” value of the first is lower: 1 for the first, 18 for the second.

Compared with `N#C[C@@H]1C[C@@H]2C[C@@H]2N1C(=O)[C@@H](N)C12CC3CC(CC(O)(C3)C1)C2` [SAXAGLIPTIN], `CC(=O)[C@@]1(O)CC[C@H]2[C@@H]3CCC4=CC(=O)CC[C@]4(C)[C@H]3CC[C@@]21C` [HYDROXYPROGESTERONE] is higher in “#Cases >70% cell death” value: 1 for the first, 2 for the second.

Compared with `Cn1c(C#N)ccc1-c1ccc2c(c1)C(C)(C)OC(=S)N2` [TANAPROGET], `Cc1cc(C#N)cc(C)c1Oc1nc(Nc2ccc(C#N)cc2)nc(N)c1Br` [ETRAVIRINE] is lower in “#Cases >70% cell death” value: 5 for the first, 1 for the second.

`OCCN1CCN(CCCN2c3ccccc3Sc3ccc(C(F)(F)F)cc32)CC1` [FLUPHENAZINE] and `Fc1ccc(C(c2ccc(F)cc2)N2CCN(C/C=C/c3ccccc3)CC2)cc1` [FLUNARIZINE] are the same in “#Cases >70% cell death” value: 3 for the first, 3 for the second.

Compared with `CC(C)C[C@H](NC(=O)CNC(=O)c1cc(Cl)ccc1Cl)B1OC(=O)C(CC(=O)O)(CC(=O)O)O1` [MLN9708], `CC(=O)[C@]1(O)Cc2c(O)c3c(c(O)c2[C@@H](O[C@H]2C[C@H](N)[C@H](O)[C@H](C)O2)C1)C(=O)c1ccccc1C3=O` [IDARUBICIN] is higher in “#Cases >70% cell death” value: 1 for the first, 18 for the second.

First: CS(=O)(=O)N1CCc2c(-c3cnc(N)nc3)nc(N3CCOCC3)nc21 [CH5132799]
Second: C[C@@]1(C(=O)Nc2ccc(F)nc2)CCCN1c1nc(Nc2cc(C3CC3)n[nH]2)c2cccn2n1 [BMS-754807]
The “#Cases >70% cell death” value of the first is higher: 3 for the first, 1 for the second.

Going from `CC(C)CC(=O)Nc1n[nH]c2c1CN(C(=O)C1CCN(C)CC1)C2(C)C` [PHA-793887] to `CC(=O)[C@@]1(O)CC[C@H]2[C@@H]3C=C(Cl)C4=CC(=O)[C@@H]5C[C@@H]5[C@]4(C)[C@H]3CC[C@@]21C` [CYPROTERONE], the “#Cases >70% cell death” value falls from 16 to 1.

First: CC(=O)OC[C@H]1O[C@@H]([S-])[C@H](OC(C)=O)[C@@H](OC(C)=O)[C@@H]1OC(C)=O.CCP(CC)CC.[Au+] [AURANOFIN]
Second: COc1c(C)c2c(c(O)c1C/C=C(\C)CCC(=O)O)C(=O)OC2 [MYCOPHENOLIC ACID]
The “#Cases >70% cell death” value of the first is higher: 17 for the first, 5 for the second.

Going from `CN(C)/N=N/c1[nH]cnc1C(N)=O` [DACARBAZINE] to `C=CC(=O)Nc1cc(Nc2nccc(-c3cn(C)c4ccccc34)n2)c(OC)cc1N(C)CCN(C)C` [OSIMERTINIB (tagrisso), OSIMERTINIB], the “#Cases >70% cell death” value falls from 14 to 1.

First: CN1C[C@H](C(=O)N[C@]2(C)O[C@@]3(O)[C@@H]4CCCN4C(=O)[C@H](Cc4ccccc4)N3C2=O)C[C@@H]2c3cccc4[nH]cc(c34)C[C@H]21 [DIHYDROERGOTAMINE MESYLATE]
Second: CC[C@@]1(O)C(=O)OCc2c1cc1n(c2=O)Cc2cc3ccccc3nc2-1 [CAMPTOTHECIN]
The “#Cases >70% cell death” value of the first is lower: 1 for the first, 12 for the second.

First: C#Cc1cccc(Nc2ncnc3cc(OCCOC)c(OCCO)cc23)c1 [OSI-420]
Second: COC1=CC(c2cc3ccccc3[nH]2)=N/C1=C\c1[nH]c(C)cc1C [OBATOCLAX]
The “#Cases >70% cell death” value of the first is higher: 3 for the first, 2 for the second.

`Nc1nc(NC2CC2)c2ncn([C@H]3C=C[C@@H](CO)C3)c2n1` [ABACAVIR SULFATE] and `OC(CN1CCC(Cc2ccc(F)cc2)CC1)c1ccc(Cl)cc1` (stereo not drawn) [ELIPRODIL] are the same in “#Cases >70% cell death” value: 1 for the first, 1 for the second.

First: N#CN=C(NCCCCCCOc1ccc(Cl)cc1)Nc1ccncc1 [GMX1778]
Second: Clc1ccccc1CN1CCc2sccc2C1 [TICLOPIDINE]
The “#Cases >70% cell death” value of the first is higher: 16 for the first, 1 for the second.

Compared with `CCN(CC)CCN1C(=O)c2c(c3c4cccc(Cl)c4n([C@@H]4O[C@H](CO)[C@@H](OC)[C@H](O)[C@H]4O)c3c3[nH]c4c(Cl)cccc4c23)C1=O` [BECATECARIN], `CCCCCN(C)CCC(O)(P(=O)(O)O)P(=O)(O)O` [IBANDRONATE] is lower in “#Cases >70% cell death” value: 18 for the first, 1 for the second.
